Experiment: gradient 5% acetonitrile 3 min, to 50% in 2 min, to 85% in 15 min, held 3 min, 100 µL/min
Details: column: Zorbax Extend-C18 2.1 x 50 mm; eluents: water / acetonitrile, 0.1% formic acid
Outline: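 The system's dead and dwell volumes were 40 μL and 900 μL, with a Zorbax Extend-C18 column (2.1 × 50 mm, 1.8 μm) run at 100 μL/min in water and acetonitrile containing 0.1% formic acid each. Pure standards were analyzed in mixtures of ~100 molecules by HPLC–quadrupole time-of-flight mass spectrometry in positive and negative ionization mode. Retention time was assigned from computationally picked, manually inspected adduct peaks.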

| SMILES | RP-LC retention time [s] |
| --- | --- |
| CCN1C(=O)c2cccnc2Sc2cc(CNC(=O)Cc3ccc(OC)cc3)ccc21 | 742 |
| COc1ccc(-n2c(=O)n(C)c(=O)c3cc(C(=O)Nc4ccccc4)cnc32)cc1 | 862 |
| COc1ccc(-n2nnc(-c3nsc(Nc4cccc(Cl)c4)n3)c2C)cc1 | 1080 |
| Cc1ccsc1C(=O)N1CCC2(CC1)NCc1ccccc1-n1ccnc12 | 588 |
| NC(=O)CSc1nnc(-c2cccc(Cl)c2)o1 | 696 |
| COc1ccc(-c2nnc(Cc3nc(-c4ccccc4F)no3)o2)cc1OC | 848 |
| O=C(c1ccc(S(=O)(=O)c2ccc(Br)cc2)nc1)N1CCN(c2ccccn2)CC1 | 673 |
| Cc1cc(C)nc(SCc2nnc(SCC(=O)Nc3nccs3)o2)n1 | 600 |
| O=C(CCc1ccc2c(c1)CN(C(=O)C1COc3ccccc3O1)CCO2)N1CCOCC1 (stereo not drawn) | 779 |
| Cc1ccc(NC(=O)Cn2nc(N3CCCCCC3)c3ccccc3c2=O)c(F)c1 | 1190 |
| COc1ccc2cccc(NC(=O)c3c[nH]c4ccccc34)c2n1 | 986 |
| Cc1ccc2[nH]cc(CCN3CC(C(=O)Nc4ccccc4)CC3=O)c2c1 (stereo not drawn) | 801 |
| COCc1nc(C2CCN(C(=O)NCC(C)C)C2)no1 (stereo not drawn) | 636 |
| CCOC(=O)c1nc(NCCN2CCCc3ccccc32)c2ccccc2n1 | 729 |
| CCC1(O)CCC12CCN(C(=O)CCC1CCCC1)CC2 (stereo not drawn) | 924 |
| COc1cccc(Cn2c(=O)c3sccc3n(Cc3nc(-c4ccccc4OC)no3)c2=O)c1 | 987 |
| Cc1noc(C2CN(C(=O)c3cc4ccccc4[nH]3)C2)n1 | 675 |
| O=C(NCCn1c(=O)n(Cc2ccc(F)cc2)c2cccnc21)c1ccco1 | 719 |
| Cc1cccc(-c2nnc(Cc3nc(C(C)(C)C)no3)o2)c1 | 1000 |
| Cc1ccc(Nc2c(-c3cccc(Br)c3)nc3ccc(C)cn23)cc1 | 830 |
| CCN1CCN(C(=O)C2CCN(c3nc4ccc(-c5cccs5)nc4s3)CC2)CC1 | 586 |
| CC(C)N1CCN(Cc2ccc(C(=O)NCc3ccccc3C(F)(F)F)cc2)C(=O)C1=O | 770 |
| CCS(=O)(=O)N1CC(=O)N(c2cc(C)ccc2C)C(C)(C(=O)NC2CCCC2)C1 (stereo not drawn) | 834 |
| CC(=O)c1ccc(NC(=O)Cn2c(-c3cccnc3)nc3ccccc32)cc1 | 689 |
| COc1ccc(-c2cc(N3CCN(C(=O)Cc4ccc(Br)cc4)CC3)n[nH]2)cc1 | 842 |
| CCCS(=O)(=O)NCCS(=O)(=O)N1CCN(c2cccc(Cl)c2)CC1 | 867 |

| SMILES | RP-LC retention time [s] |
| --- | --- |
| CCN1C(=O)c2cc(S(=O)(=O)NCc3ccccc3F)ccc2Oc2cccnc21 | 1010 |
| O=S(=O)(c1ccc(Cl)s1)N1CCC(c2nnc(-c3ccco3)o2)CC1 | 868 |
| CCCCCOc1ccc(C(=O)CCNC(Cc2c[nH]c3ccccc23)C(=O)O)cc1 (stereo not drawn) | 787 |
| O=C(Cc1ccc(NC(=O)C2CC2)cc1)NCc1cccs1 | 659 |
| COc1ccc(Cl)cc1NS(=O)(=O)c1c[nH]c2ncccc12 | 763 |
| C=C(C)CN1CC[C@]23c4c5ccc(O)c4O[C@H]2c2[nH]c4ccccc4c2C[C@@]3(O)C1C5 | 703 |
| Cc1cc(-c2nnc(-c3ccco3)o2)c(C)n1CC(=O)NCc1ccc(F)cc1 | 849 |
| COc1cccc(-c2noc(Cn3cnc4c(nnn4-c4ccccc4OC)c3=O)n2)c1 | 914 |
| COc1ccc(OC)c(NC(=O)Cn2cccc(-c3nc(-c4ccc(OC)c(OC)c4)no3)c2=O)c1 | 810 |
| O=C(NC1CC(=O)N(Cc2ccccc2)C1)c1cnccn1 (stereo not drawn) | 632 |
| CCOC(=O)C1C(=O)C=C(c2cccs2)CC1c1ccc(F)cc1 (stereo not drawn) | 1110 |
| CCOc1ccc(NC(=O)c2oc3cc(Br)ccc3c2C)c2cccnc12 | 800 |
| O=C(Nc1ccc(N2CCN(c3ccccc3)C2=O)nc1)c1cc(F)cc(F)c1 | 1020 |
| CCn1c(=O)c(SCC(=O)NCC2CCN(Cc3ccc(C)cc3)C2)nc2ccccc21 (stereo not drawn) | 668 |
| O=C(C1CCCC1)N1CC(c2nc(-c3ccc(F)cc3)no2)C2(CCOCC2)C1 (stereo not drawn) | 958 |
| Cc1ccc(-c2nc(C3CC(=O)N(c4ccc(Cl)cc4)C3)no2)cc1 (stereo not drawn) | 978 |
| COc1cccc(C(=O)N2CCC3(CC2)NC(=O)c2cccc(Cl)c2N3)c1 | 749 |
| Cc1ccc(-c2cc3c(=O)n(Cc4noc(CN5CCCCCC5)n4)ccn3n2)c(C)c1 | 724 |
| Cc1cccc(NC(=O)NC2CCN(C(=O)N3C[C@@H]4C[C@H](C3)[C@H]3CCCC(=O)N3C4)CC2)c1 | 669 |
| CNC(=O)c1cc(N2CCOCC2)nc2c(C)cccc12 | 704 |
| CSc1cccc(NC(=O)N2CCN(Cc3nc4cccnc4n3-c3ccc(F)cc3)CC2)c1 | 711 |
| Cc1noc(-c2ccnc(-n3cnc(C(=O)NC(C)c4ccccc4)c3)c2)n1 (stereo not drawn) | 867 |
| O=C(Cn1ccn2nc(-c3ccccc3)c(CO)c2c1=O)N1CCN(c2ccccc2)CC1 | 800 |
| COc1ccc(NC(=O)N(C)CC2CCOCC2)cc1Cl | 712 |
| CNC(=O)N1CCCC1c1nc(C2CN(C(=O)c3cccn3C)C2)no1 (stereo not drawn) | 629 |
| CC(C)(OCc1nn(Cc2ccccc2)c2ccccc12)C(=O)O | 937 |

Results, then the molecule that gave them:

| RP-LC retention time [s] | SMILES |
| --- | --- |
| 788 | COc1ccc(-c2cc3n(n2)CCCN(C(=O)c2cccnc2SC)C3)cc1 |
| 1060 | CCc1ccc(NC(=O)N2CCc3cn(CC)c4cccc(c34)C2)cc1 |
| 840 | COc1ccc(OC)c(NC(=O)C2CCN(S(=O)(=O)c3ccc4c(c3)sc(=O)n4C)CC2)c1 |
| 963 | Cc1cc(S(=O)(=O)N(C)CC2CCOCC2)ccc1Cl |
| 715 | COc1ccc(CCNC(=O)Cn2ccc3ccc(-c4nnc(C)o4)cc32)cc1OC |
| 1040 | CC1CCN(C(=O)Cn2nc(-c3nc(-c4cccc(Cl)c4)no3)ccc2=O)CC1 |
| 920 | Cc1ccc(CN2CCN(C3CCN(S(=O)(=O)c4cc(F)ccc4C)CC3)C(=O)C2=O)cc1 |
| 903 | COC1CCC12CCN(C(=O)C1CCCCC1)CC2 (stereo not drawn) |
| 1130 | Cc1oc2ccn(Cc3cccc(F)c3)c(=O)c2c1C(=O)NCc1cc(F)cc(F)c1 |
| 1120 | CCOc1ccc(S(=O)(=O)N2CCC(c3noc(-c4ccc(F)cc4)n3)CC2)cc1 |
| 784 | Cc1ccn2cc(-c3cccc(S(=O)(=O)N4CC(C)CC(C)C4)c3)nc2c1 (stereo not drawn) |
| 618 | CCC(C)NC(=O)Cn1c(=O)c(=O)n(CC)c2ncccc21 (stereo not drawn) |
| 846 | COC(=O)c1cc(S(=O)(=O)N2CCCC2C(=O)NCc2ccccc2C)cn1C (stereo not drawn) |
| 1130 | Cc1ccc2c(c1)N(C(=O)Cn1cnc3c(sc4nc(-c5ccccc5)ccc43)c1=O)CCO2 |
| 818 | COc1ccc(CNC(=O)c2cn(C)nc2S(=O)(=O)N2CCSCC2)cc1 |
| 893 | CCc1ccc(C2=C(C)C(N3CCCN(C(=O)c4cccs4)CC3)=NS2(=O)=O)cc1 |
| 577 | CCC(CC)N1CCN(S(=O)(=O)c2cc(-c3[nH]ncc3C(=O)N(C)C)oc2C)CC1 |
| 676 | CCn1c(CCNC(=O)c2ccc(F)c(Cl)c2)nc2cccnc21 |

| RP-LC retention time [s] | SMILES |
| --- | --- |
| 714 | CCOc1ccc(-n2nnnc2CNC(=O)NCc2cccs2)cc1 |
| 1140 | CCn1c(=O)c(C)nc2cc(-c3noc(/C=C/c4ccc(OC)cc4)n3)ccc21 |
| 930 | CC(C(=O)NCCc1c[nH]c2ccc(Cl)cc12)n1c2ccccc2c2cnn(C)c(=O)c21 (stereo not drawn) |
| 1060 | O=C(NCCCc1ccccc1)C1CCN(S(=O)(=O)c2ccc(-c3noc(C4CC4)n3)cc2)CC1 |
| 734 | O=C(COc1ccc(-c2nnc3n2CCCC3)cc1)Nc1ccc(Br)cc1 |
| 787 | COc1ccccc1C(=O)N1CCC2(CC1)NC(=O)c1cc(Cl)ccc1N2C |
| 976 | Cc1ccc(NC(=O)CN2C(=O)CCCc3cc(S(=O)(=O)N4CCC(C)CC4)ccc32)cc1 |
| 649 | CCCc1cc(N2CCN(C(=O)c3ccc(N(C)C)cc3)CC2)nc2nnc(CC)n12 |
| 679 | Cc1ccc(S(=O)(=O)Nc2ccc(-c3cn4ccc(C)nc4n3)cc2)c(C)c1 |
| 1020 | CCCOC(=O)C1=CN(Cc2ccccc2)S(=O)(=O)N=C1C |
| 570 | CN(C)CC1(O)CCC2(CCN(C(=O)c3ccoc3)CC2)CC1 |
| 1070 | CCCn1cc2c3c(cccc31)CN(C(=O)Nc1cccc(C)c1)CC2 |
| 633 | CCN(CC)S(=O)(=O)c1ccc2c(c1)N(CC(=O)NCCN(C)C)C(=O)C1CCCCN21 (stereo not drawn) |
| 618 | Cc1cc(=O)n(CC(=O)Nc2ccc(F)cc2)c(N2CCCC2)n1 |
| 944 | COc1ccc2c(c1)C=C(C(=O)NCc1ccccc1OC)C=CO2 |
| 810 | O=c1c2scc(-c3ccc(F)cc3)c2ncn1Cc1cc(=O)n2ccccc2n1 |
| 993 | CN1C(=O)C2CCCCN2c2ccc(C(=O)NCCC3=CCCCC3)cc21 (stereo not drawn) |
| 643 | Cc1noc([C@@H]2CN(Cc3ccc(OC(F)(F)F)cc3)C[C@H]2CO)n1 |
